Results as given in patent publication US4606911A, “Pharmaceutical composition for the prevention of dental caries” (Rohto Pharmaceutical Co. Ltd., priority 1984, dated 1986).
≈ marks a conversion by molar mass, not a printed value. Entries after “also recorded” stand apart in the source; their conditions may differ.

Experiments:
Assay type in all cases: cell-based
bacterial cells = experiment: Adherence of bacterial cells to the surface of an extracted tooth; settings: extracted tooth suspended in a culture medium containing sucrose
[1] = test system: Streptococcus salivarius ATCC 9222; experiment: Antibacterial activity (MIC, growth in BHI medium); parameters: key to Antibacterial activity (growth): -: grow; ±: slightly grow; +: not grow
Description: (§1) To a test tube was charged 3.8 ml of Brain Heart Infusion (BHI) medium, and 100 μl of a sample solution containing oleanolic, ursolic or glycyrrhetic acid and 100 μl of pre-incubated culture of bacterium selected from those listed below were added thereto. The mixture was incubated at 37° C. and then allowed to stand over night. The extent of the growth of bacterium was observed after two or five days. The MIC value was determined for each sample and summarized in Table 2. |Streptococcus salivarius ATCC 9222

[2] = test system: Bacillus megaterium QM B1551; experiment: Antibacterial activity (MIC, growth in BHI medium); parameters: key to Antibacterial activity (growth): -: grow; ±: slightly grow; +: not grow
Description: as §1, with “|Bacillus megaterium QM B1551” for “|Streptococcus salivarius ATCC 9222”

[3] = test system: Streptococcus mutans OMZ 176; experiment: Antibacterial activity (MIC, growth in BHI medium); parameters: key to Antibacterial activity (growth): -: grow; ±: slightly grow; +: not grow
Description: as §1, with “days.” for “days. The MIC value was determined for each sample and summarized in Table 2. |Streptococcus salivarius ATCC 9222”
Streptococcus mutans OMZ 176

[4] = test system: S. mutans OMZ 176 (serotype d); experiment: microbe, parasite or virus in culture
Description: The adherence-inhibiting activity of the triterpenes of the formula (I) was measured using an inner wall of a test tube in place of the surface of a tooth.
To 2.9 ml of BHI medium containing 5% sucrose in a test tube (i) are added 30 μl of a sample solution prepared by dissolving a compound of: the formula (I) in H2 O or dimethylsulfoxide (DMSO) and 100 μl of culture medium containing S. mutans OMZ 176 (serotype d) which was preincuvated at 37° C. for 24 hours in BHI medium, and the mixture is incubated at 37° C. for 20 hours, with the test tube being maintained at a slant of 30°. The test tube is revolved gently two or three times and the supernatant is transferred to another test tube (ii). To the first test tube (i) is added 3 ml of 50 mM phosphate buffer (pH 7.5), and the test tube is gently revolved two or three times. The resultant supernatant is transferred to the third test tube (iii). The test tubes (ii) and (iii) are each centrifuged and respective supernatants are discarded. To each of the test tubes (i), (ii) and (iii) is added 3 ml of 0.5M NaOH, and the test tubes are shaken to suspend bacterial cells. Absorbance of the resulting suspension is measured at 660 nm. The absorbances obtained with respect to the test tube (i), (ii) and (iii) are represented by Ab(i), Ab(ii) and Ab(iii), respectively. Ab(i) reflects the amount of the bacterial cells adhered to the wall of the test tube and Ab(ii) and Ab(iii) correspond to the amount of the bacterial cells not adhered to the wall.
The same procedure is repeated using 30 μl of distilled water or DMSO in place of the sample solution to obtain a control. The absorbance of the control is represented by Ab(Cont.).
Adherence percentage of bacteria is calculated from the following equation. [formula]
Adherence inhibitory percentage (AIP) is calculated using the adherence percentage according to the following equation. [formula]
The magnitude of adherence-inhibiting activity of each of the samples is shown, in Table 3, by the use of the following symbols: […]

[5] = Streptococcus mutans, read-out: Adherence-inhibiting activity (AIP)

C[C@H]1[C@H](C)CC[C@]2(C(=O)O)CC[C@]3(C)C(=CC[C@@H]4[C@@]5(C)CC[C@H](O)C(C)(C)[C@@H]5CC[C@]43C)[C@H]12 [Ursolic acid]
adherence of bacterial cells to the surface of an extracted tooth (bacterial cells): completely inhibited
Antibacterial activity (growth) ([1]; 10 μg/ml): -
Antibacterial activity (growth) ([1]; 25 μg/ml): -
Antibacterial activity (growth) ([1]; 50 μg/ml): +
Antibacterial activity (growth) ([1]; 100 μg/ml): +
Antibacterial activity (growth) ([1]; 200 μg/ml): +
Antibacterial activity (growth) ([1]; 400 μg/ml): +
MIC ([1]; ATCC9222, Streptococcus salivarius, BHI, 37° C., read-out: MIC (minimum inhibitory concentration)): 25 µg/mL (≈ 54.7 µM)
Antibacterial activity (growth) ([2]; 10 μg/ml): -
Antibacterial activity (growth) ([2]; 25 μg/ml): -
Antibacterial activity (growth) ([2]; 50 μg/ml): -
Antibacterial activity (growth) ([2]; 100 μg/ml): -
Antibacterial activity (growth) ([2]; 200 μg/ml): -
Antibacterial activity (growth) ([2]; 400 μg/ml): -
MIC ([2]; Priestia megaterium, QMB1551, Bacillus megaterium, BHI, 37° C., read-out: MIC (minimum inhibitory concentration)): > 200 µg/mL
antibacterial activity to S. mutans (in words) [3]: also exhibit the selective activity on S. mutans, although the magnitude of the activity is each less than that of glycyrrthetic acid; also recorded: have both of the adherence-inhibiting activity and the selective antibacterial activity to S. mutans; also recorded: have both activities
Antibacterial activity (growth) ([3]; 10 μg/ml): -
antibacterial activity at 10 μg/ml (in words) ([3]; 10 μg/ml): ineffective for exhibiting antibacterial activity
Antibacterial activity (growth) ([3]; 25 μg/ml): -
Antibacterial activity (growth) ([3]; 50 μg/ml): +
Antibacterial activity (growth) ([3]; 100 μg/ml): +
Antibacterial activity (growth) ([3]; 200 μg/ml): +
Antibacterial activity (growth) ([3]; 400 μg/ml): +
MIC ([3]; Streptococcus mutans, OMZ176, Streptococcus mutans OMZ 176, BHI, 37° C., read-out: MIC (minimum inhibitory concentration)): 25 µg/mL (≈ 54.7 µM)
adherence-inhibiting activity (in words) [4]: have both of the adherence-inhibiting activity and the selective antibacterial activity to S. mutans; also recorded: have both activities
minimal effective concentration ([4]; Streptococcus mutans, 20 h, read-out: concentration at which adherence of the bacterial cells is inhibited): 10 µg/mL
inhibition at 10 µg/mL [4, 5]: > 50%
inhibition at 20 µg/mL [4, 5]: > 50%
inhibition at 30 µg/mL [4, 5]: > 50%
inhibition at 50 µg/mL [4, 5]: > 50%
inhibition at 100 µg/mL [4, 5]: > 50%
